Measurements taken from US20190183124A1, “METHOD FOR CONTROLLING PESTS IN MODIFIED PLANTS” (BASF SE, priority 2016, published 2019).

Tested on: Sweetpotato whitefly (Bemisia tabaci)
Experiment: Action on Sweetpotato whitefly (Bemisia tabaci) on soybean plants, greenhouse foliar spray
Type: in vivo
Conditions: for Mean whitefly nymph response (Whitefly Nymphs D.A.A.-2): dose 60 ppm a.i. (text: 60 g a.i./ha, 200 L/ha), two applications 7 days apart, whole plant counts 3 days after 2nd application, greenhouse
Procedure: The active compound tested was formulated as a SL-type formulation.
Action on Sweetpotato whitefly (Bemisia tabaci)
A randomized block, 2 by 3 factorial experimental design was utilized to determine the interaction effects and main effects of two explanatory variables: product rate and soybean variety on the response variable, whitefly mortality. The study was conducted under greenhouse conditions and utilized lntacta™ (Bt-traited) and ‘BMX Potencia’ (non-traited) varieties at growth stage 11, respectively. All study plants were infested with Bemisia tabaciadults prior to application.
Formulated material of compound I-1 was combined with water and applied at concentration of 60 gai/ha with a CO2 pressurized spray boom at 200 L/ha water volume. The first application was timed to a threshold whitefly infestation, and was followed by a second application 7 days later.
Assessments were conducted by taking whole plant counts of adult and immature whiteflies at 3 days after the second application.

Which “Effect against whiteflies in Intacta soybean relative to BMX Potencia” value (60 g a.i./ha, 3 days after second application, Intacta vs BMX Potencia soybean) does the source give for `CCN(C(=O)c1cnn(C(C)C(C)C)c1C)c1ccnnc1` (stereo not drawn) [I-1, 1-(1,2-dimethylpropyl)-N-ethyl-5-methyl-N-pyridazin-4-yl-pyrazole-4-carboxamide] here?
Its value is “synergistic effect”.

What about the “Mean whitefly nymph response (Whitefly Nymphs D.A.A.-2)” value (BMX Potencia (non-traited) soybean) of the same compound?
The value was 4.91.

What about the “Mean whitefly nymph response (Whitefly Nymphs D.A.A.-2)” value (Intacta (Bt-traited) soybean) of the same compound?
The value was 0.57.
